For series [1] the following is noted: cited from earlier work.
The nature of series [2]: Preliminary pharmacokinetics of tizanidine solutions in rabbits (IN, IM, PO). Particulars: 3.00 mg/kg of tizanidine hydrochloride. The series is classed as in vivo. As to the method:
Preliminary pharmacokinetic data in rabbits at the dose of 3.00 mg/kg of tizanidine hydrochloride by intranasal (IN), intramuscular (IM), and oral route (PO) were performed to test the intranasal absorption without any enhancer.

For series [3] the following is noted: animal data, local administration; cited from earlier work.
Series [4] can be described thus: pH of the tizanidine hydrochloride solutions. It counts as physicochemical. The note with it: Tizanidine.HCl aqueous solutions, no excipients.
A short description of series [5]: Local tolerability of intranasal aqueous solution. It counts as in vivo. The note with it: 45.00 mg/mL, pH 4.8. As to the method: The proposed formulations are calculated for a single puff of 50 µL/nostril.

Structures can show the parent of a compound that is named as a salt.

As for `Clc1ccc2nsnc2c1NC1=NCCN1` [Tizanidine, 5-chloro-N-(4,5-dihydro-1H-imidazol-2-yl)-2,1,3-benzothia-diazol-4-amine], the “absorption by oral route” value in series [1] (extensive first-pass effect) is “well and rapidly absorbed”. In series [1] (oral route), the T1/2z was 1 to 2 h and the Tmax is 1 to 2 h. For the same compound, the bioavailability entry in series [2] (intranasal (IN) compared with intramuscular (IM)) was “close to that of intramuscular route (IM)”. In series [2] (intranasal (IN), without any enhancer), the intranasal absorption result was “rapidly absorbed”. Also, in series [3], the “activity compared with clonidine” value is “equivalent activity”.

As for `Clc1ccc2nsnc2c1NC1=NCCN1` [Tizanidine.HCl], the pH in series [4] is 4.8. In addition, in series [5], the “tolerability by the nasal mucosa (redness or pain)” value is listed as “tolerated by the nasal mucosa without any local side effect”.

As usually defined, the Tmax is the time at which the peak concentration occurs.

The record behind these values is patent EP2338473A1, “Pharmaceutical dosage forms of tizanidine and administration routes thereof” (MDM S.p.A., priority 2009, dated 2011).
